Tested on: N-nitrosodiethylamine (NDEA)-induced tumors in lung and liver
Assay: Carcinogen-induced oncogenesis in liver and lung
Format: in vivo, mouse (B6C3F1 strain)
Details: for incidence of NDEA-induced hepatic tumor (words): oral HD-2, FIG. 6
Procedure: To examine the inhibitory effect of HD-2 on carcinogen-induced oncogenesis, N-nitrosodiethylamine (NDEA) was injected as a carcinogen into peritoneal cavity of mouse (B6C3F1 strain) at a concentration of 90 mg per kg body weight to induce cancer. At 2, 4, 8, 16, and 32 weeks after carcinogen injection, […] of HD-2 was administered orally and the same amount of distilled water was injected into control group. Forty-two weeks after NDEA treatment, mice were sacrificed to measure the incidence and the size of tumors formed in lung and liver. […] The incidence of NDEA-induced hepatic tumor was above 90%, but following HD-2 administration, the incidence was lowered to 5 to 22%, despite of variation depending on the period of HD-2 administration. Thus HD-2 inhibited carcinogen-induced oncogenesis in liver by 78 to 95. […] In lung, the inhibitory effect of HD-2 on reducing carcinogen-induced oncogenesis was not so dramatic as in liver. However, if HD-2 was given at 4 weeks after NDEA injection, carcinogen-induced oncogenesis was inhibited by 30%.

O1[As]2O[As]3O[As]1O[As](O2)O3 [HD-2, arsenic hexoxide (As4O6)]
incidence of NDEA-induced lung cancer (FIG. 7): decreases the incidence of lung cancer
inhibition of carcinogen-induced oncogenesis in lung (HD-2 given at 4 weeks after NDEA injection): 30%
number of tumor masses in lung (HD-2 group, FIG. 7): about 2
spontaneous cancers of lung (oral HD-2): completely suppressed
spontaneous hepatoma (oral HD-2): inhibited spontaneous hepatoma completely
incidence of NDEA-induced hepatic tumor (words): effectively inhibited
incidence of NDEA-induced hepatic tumor (words) (listed as As4O6): decreases hepatoma incidence

— patent US7261906B2, “Anti-cancer therapy agent of arsenic hexoxide (As4O6) of a natural chemical substance and its pharmaceutical composition” (priority 1998, dated 2007)
